Experimental data: BindingDB's records for doi:10.1016/j.bioorg.2016.12.002 (China Pharmaceutical University, 2017)

molecular target: Hepatocyte growth factor receptor/Proto-oncogene tyrosine-protein kinase receptor Ret (Homo sapiens, UniProt P07949+P08581); test: In Vitro c-Met Enzyme Assay
Protocol: The c-Met kinase activity as tested with enzyme-linked immunosorbent assays (ELISAs) as previously reported protocol [Qiang et al., Bioorg. Med. Chem., 24:3353-3358; Shi et al., Bioorg. Med. Chem., 22:4735-4744]. Briefly, reaction cocktail containing c-met kinase and various concentrations of measured compound or 0.1% DMSO (negative control) was incubated at 37 °C for five minutes. Then the mixture of ATP and substrate peptide was added and incubated for another 30 min. Afer that, the reaction was terminated and transferred into a pre-coated 96-well plate, and incubated for another 1 h at 37 °C. Phosphate-buffered saline (PBS) containing 0.1% Tween 20 (T-PBS) was applied to wash the plate three times. anti-phosphotyrosine (PY99) antibody was then added. Horseradish peroxidase-conjugated goat anti-mouse IgG was added after 30 min. Finally, the plate was analyzed with multi-well spectrophotometer at […].

Hepatocyte growth factor receptor/Proto-oncogene tyrosine-protein kinase receptor Ret, sequence (P08581 whole entry): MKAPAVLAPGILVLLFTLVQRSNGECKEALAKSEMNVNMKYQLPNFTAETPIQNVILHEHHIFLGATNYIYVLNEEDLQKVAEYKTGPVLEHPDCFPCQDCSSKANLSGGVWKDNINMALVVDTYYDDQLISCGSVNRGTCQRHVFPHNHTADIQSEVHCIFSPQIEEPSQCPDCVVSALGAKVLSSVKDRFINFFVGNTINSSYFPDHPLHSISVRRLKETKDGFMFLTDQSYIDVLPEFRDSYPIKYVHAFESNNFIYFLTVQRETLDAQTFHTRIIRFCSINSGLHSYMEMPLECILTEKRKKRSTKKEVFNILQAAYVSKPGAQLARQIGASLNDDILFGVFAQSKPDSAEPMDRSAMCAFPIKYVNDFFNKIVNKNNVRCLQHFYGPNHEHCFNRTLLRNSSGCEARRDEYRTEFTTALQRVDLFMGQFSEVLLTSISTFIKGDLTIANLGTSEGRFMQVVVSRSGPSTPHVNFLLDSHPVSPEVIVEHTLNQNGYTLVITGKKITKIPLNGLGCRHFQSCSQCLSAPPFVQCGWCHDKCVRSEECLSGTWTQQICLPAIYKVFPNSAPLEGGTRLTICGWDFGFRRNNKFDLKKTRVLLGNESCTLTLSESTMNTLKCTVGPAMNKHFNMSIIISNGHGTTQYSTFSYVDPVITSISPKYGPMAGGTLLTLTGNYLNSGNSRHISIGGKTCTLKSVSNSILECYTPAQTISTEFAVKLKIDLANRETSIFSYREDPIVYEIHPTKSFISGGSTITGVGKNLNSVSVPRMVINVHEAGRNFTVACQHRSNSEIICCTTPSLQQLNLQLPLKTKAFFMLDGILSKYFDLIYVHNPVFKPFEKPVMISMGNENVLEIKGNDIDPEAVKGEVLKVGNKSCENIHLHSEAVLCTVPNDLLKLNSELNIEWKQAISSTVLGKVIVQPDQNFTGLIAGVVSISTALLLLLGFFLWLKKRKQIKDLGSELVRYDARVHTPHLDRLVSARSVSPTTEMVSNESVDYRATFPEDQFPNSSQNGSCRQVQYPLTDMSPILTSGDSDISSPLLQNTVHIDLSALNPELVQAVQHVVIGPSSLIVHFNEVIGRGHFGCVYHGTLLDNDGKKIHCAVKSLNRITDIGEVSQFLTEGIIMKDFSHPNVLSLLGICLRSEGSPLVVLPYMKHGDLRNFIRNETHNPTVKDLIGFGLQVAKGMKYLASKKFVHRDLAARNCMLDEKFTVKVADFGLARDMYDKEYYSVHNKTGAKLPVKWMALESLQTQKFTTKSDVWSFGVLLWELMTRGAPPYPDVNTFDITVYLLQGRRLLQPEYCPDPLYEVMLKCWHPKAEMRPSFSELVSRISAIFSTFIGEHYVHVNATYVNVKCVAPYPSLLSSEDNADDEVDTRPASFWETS
Hepatocyte growth factor receptor/Proto-oncogene tyrosine-protein kinase receptor Ret, sequence (P07949 whole entry): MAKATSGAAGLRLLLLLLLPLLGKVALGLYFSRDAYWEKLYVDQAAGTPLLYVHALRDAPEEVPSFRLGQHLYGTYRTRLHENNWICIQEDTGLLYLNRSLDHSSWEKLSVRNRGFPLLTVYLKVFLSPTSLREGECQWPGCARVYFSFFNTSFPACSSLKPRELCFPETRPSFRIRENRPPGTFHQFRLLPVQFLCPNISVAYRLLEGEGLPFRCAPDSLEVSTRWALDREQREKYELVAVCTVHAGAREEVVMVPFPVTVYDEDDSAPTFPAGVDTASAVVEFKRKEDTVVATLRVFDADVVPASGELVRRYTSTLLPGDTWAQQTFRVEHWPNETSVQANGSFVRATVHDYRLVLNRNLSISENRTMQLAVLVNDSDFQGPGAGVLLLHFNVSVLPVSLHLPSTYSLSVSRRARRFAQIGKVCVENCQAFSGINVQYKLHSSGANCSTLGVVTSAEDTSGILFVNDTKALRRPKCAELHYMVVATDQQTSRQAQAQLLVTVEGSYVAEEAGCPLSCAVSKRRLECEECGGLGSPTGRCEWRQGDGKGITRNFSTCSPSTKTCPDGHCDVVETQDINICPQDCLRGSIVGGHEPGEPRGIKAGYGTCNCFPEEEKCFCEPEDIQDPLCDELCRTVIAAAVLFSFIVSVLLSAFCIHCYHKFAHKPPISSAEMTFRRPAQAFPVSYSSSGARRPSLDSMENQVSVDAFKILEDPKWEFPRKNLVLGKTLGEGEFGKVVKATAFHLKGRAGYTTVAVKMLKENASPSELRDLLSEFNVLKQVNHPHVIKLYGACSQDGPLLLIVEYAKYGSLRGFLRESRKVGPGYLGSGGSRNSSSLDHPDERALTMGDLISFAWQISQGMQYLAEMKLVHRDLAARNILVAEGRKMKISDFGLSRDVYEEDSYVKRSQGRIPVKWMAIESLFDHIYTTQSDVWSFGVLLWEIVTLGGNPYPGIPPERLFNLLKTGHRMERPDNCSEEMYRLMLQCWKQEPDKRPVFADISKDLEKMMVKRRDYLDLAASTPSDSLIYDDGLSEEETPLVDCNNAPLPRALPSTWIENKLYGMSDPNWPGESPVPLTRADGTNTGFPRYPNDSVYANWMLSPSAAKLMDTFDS

Row | IC50 | SMILES
1 | 12.2 µM | Clc1ccc(-c2cn3cccc(COc4nnc5ccc(Cl)nn45)c3n2)c(Cl)c1 [6-Chloro-3-((2-(2,4-dichlorophenyl)imidazo[1,2-a]pyridin-8-yl)methoxy)-[1,2,4]triazolo[4,3-b] pyridazine (7g)]
2 | 12.3 µM | Clc1ccc(Cl)c(-c2cn3cccc(COc4nnc5ccc(Cl)nn45)c3n2)c1 [6-chloro-3-((2-(2,5-dichlorophenyl)imidazo[1,2-a]pyridin-8-yl)methoxy)-[1,2,4]triazolo[4,3-b] pyridazine (7e)]
3 | 0.06 µM | COc1ccc2c(OCc3nnc4ccc(-c5ccccc5)nn34)ccnc2c1 [7-methoxy-4-({6-phenyl-[1,2,4]triazolo[4,3-a]pyridazin-3-yl}methoxy)quinoline]
